Results from patent US9410197B2, “Compound for sequencing by synthesis” (Roche Diagnostics Operations, Inc., priority 2013, dated 2016).
Where “and” joins values, the source holds several entries; their conditions need not be identical. Identical values can stand only once.

Key:
[1] = Cleavage of the 3′-O-nitro group with cysteamine-NaOH; assay type: physicochemical; conditions: aqueous cysteamine-NaOH (pH 9.0), 1.0 to 2.0 M cysteamine, after 5 minutes at 50° C.
Experimental: 10 to 100 nmol of 3′-O-nitro-thymidine 2 were dissolved in an aqueous solution of cysteamine-NaOH (pH 9.0) to obtain a final nucleoside concentration of 0.17 to 1.7 nmol/μL and a final cysteamine concentration of 1.0 to 2.0 M. Reaction control was performed via analytical reversed-phase chromatography using 0.1 M triethylammonium acetate (pH 7.0)/acetonitrile gradient as eluent.

[2] = target: T1, Therminator II DNA polymerase (Thermococcus sp., UniProt Q56366, A485L/D141A/E143A/Y409V); assay type: biochemical
T1 construct: purchased New England Biolabs
T1 sequence (Q56366 1-775 D141A/E143A/Y409V/A485L): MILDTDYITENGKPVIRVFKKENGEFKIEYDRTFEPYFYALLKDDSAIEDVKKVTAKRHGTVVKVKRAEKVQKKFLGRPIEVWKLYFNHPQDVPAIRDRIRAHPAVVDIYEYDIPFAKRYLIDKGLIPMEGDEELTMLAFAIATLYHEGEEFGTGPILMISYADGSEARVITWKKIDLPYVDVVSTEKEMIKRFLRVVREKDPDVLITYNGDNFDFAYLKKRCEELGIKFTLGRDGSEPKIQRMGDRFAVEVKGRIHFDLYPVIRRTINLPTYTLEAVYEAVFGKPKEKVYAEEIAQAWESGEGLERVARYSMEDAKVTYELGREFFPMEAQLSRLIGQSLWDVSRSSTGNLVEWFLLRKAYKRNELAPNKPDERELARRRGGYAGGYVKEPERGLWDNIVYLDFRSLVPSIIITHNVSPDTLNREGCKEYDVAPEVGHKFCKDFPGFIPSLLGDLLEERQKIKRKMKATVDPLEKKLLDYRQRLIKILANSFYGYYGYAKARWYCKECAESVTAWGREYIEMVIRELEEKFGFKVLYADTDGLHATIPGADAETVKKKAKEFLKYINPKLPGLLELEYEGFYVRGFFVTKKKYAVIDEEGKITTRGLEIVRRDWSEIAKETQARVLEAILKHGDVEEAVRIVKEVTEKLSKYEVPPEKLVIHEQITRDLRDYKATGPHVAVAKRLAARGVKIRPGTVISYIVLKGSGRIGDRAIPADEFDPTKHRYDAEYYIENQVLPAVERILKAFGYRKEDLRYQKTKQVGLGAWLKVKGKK

Compound	cleavage of the nitrate group [1]	acceptance as substrate by Therminator II DNA polymerase [2]	incorporation by Therminator II DNA polymerase [2]	primer + dNTP MWfound [2]
Cc1cn([C@H]2C[C@H](O[N+](=O)[O-])[C@@H](CO)O2)c(=O)[nH]c1=O [Compound 2, 3′-O-Nitro-β-D-thymidine]	Quantitative cleavage			
Cc1cn([C@H]2C[C@H](O[N+](=O)[O-])[C@@H](COP(=O)([O-])OP(=O)([O-])OP(=O)([O-])[O-])O2)c(=O)[nH]c1=O.[Na+].[Na+].[Na+].[Na+] [Compound 3, 3′-O-Nitro-β-D-thymidine 5′-triphosphate, tetrasodium salt]		accepted as substrates	incorporated efficiently	5108.2 DA and 5108.1 DA and 5108.3 DA and 5108.4 DA
